Structures can show the parent of a compound that is named as a salt.

Results on 21 molecules are retold here after patent publication US7863449B2, “Modulators of muscarinic receptors” (Vertex Pharmaceuticals Incorporated, priority 2004, dated 2011).

The target in one assay is T1, M4 muscarinic receptor (Homo sapiens, UniProt P08173).
T1 construct: expressed in transfected cells; host or cells: CHO (M4-CHO)
T1 sequence (P08173 1-479): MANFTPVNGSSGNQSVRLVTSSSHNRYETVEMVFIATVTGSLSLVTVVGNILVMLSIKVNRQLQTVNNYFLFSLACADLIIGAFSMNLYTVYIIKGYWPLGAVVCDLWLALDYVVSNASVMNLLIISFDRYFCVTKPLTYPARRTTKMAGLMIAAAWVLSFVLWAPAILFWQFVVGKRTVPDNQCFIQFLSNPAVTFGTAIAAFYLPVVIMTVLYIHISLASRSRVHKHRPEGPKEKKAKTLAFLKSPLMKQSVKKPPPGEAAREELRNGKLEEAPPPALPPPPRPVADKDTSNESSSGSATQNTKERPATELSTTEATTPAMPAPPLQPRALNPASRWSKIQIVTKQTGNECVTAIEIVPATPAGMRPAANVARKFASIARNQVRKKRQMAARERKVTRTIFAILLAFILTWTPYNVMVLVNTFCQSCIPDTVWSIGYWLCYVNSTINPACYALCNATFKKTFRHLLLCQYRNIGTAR
Nature of the assay: Functional mobilization of intracellular calcium (FLIPR), M4-CHO cells. It is filed as cell-based. The note with it: for Emax: 100% efficacy is the maximum response obtained using Carbachol as a control; for M4 Activity: M4-CHO cells, FLIPR calcium mobilization. The method in brief:
(§1)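 Calcium flux recorded 60 s (ex 488, em 540 nm) in dye-loaded M1- or M4-CHO cells in pH 7.4 buffer with 1 mM probenecid. Inhibition measured against carbachol EC80 after 15 min compound pre-incubation or co-addition; agonism measured by compound addition alone. Final DMSO 0.5%.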

For another assay, the target named is T2, M1 muscarinic receptor (Homo sapiens, UniProt P11229).
T2 construct: expressed in transfected cells; host or cells: CHO (M1-CHO)
T2 sequence (P11229 1-460): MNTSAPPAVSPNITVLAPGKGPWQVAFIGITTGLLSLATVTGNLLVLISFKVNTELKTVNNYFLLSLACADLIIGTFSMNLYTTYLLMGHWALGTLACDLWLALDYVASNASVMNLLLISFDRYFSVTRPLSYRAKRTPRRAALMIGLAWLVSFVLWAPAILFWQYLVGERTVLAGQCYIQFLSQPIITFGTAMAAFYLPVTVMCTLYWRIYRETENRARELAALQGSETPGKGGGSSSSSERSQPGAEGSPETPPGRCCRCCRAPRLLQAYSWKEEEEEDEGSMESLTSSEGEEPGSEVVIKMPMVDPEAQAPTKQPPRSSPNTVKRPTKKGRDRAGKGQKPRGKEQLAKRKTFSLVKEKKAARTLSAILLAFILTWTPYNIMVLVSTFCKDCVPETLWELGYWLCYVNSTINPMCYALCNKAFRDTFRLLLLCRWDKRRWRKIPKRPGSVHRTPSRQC
Nature of the assay: Functional mobilization of intracellular calcium (FLIPR), M1-CHO cells. It is filed as cell-based. The settings on record: for Emax: 100% efficacy is the maximum response obtained using Carbachol as a control; for M1 Activity: M1-CHO cells, FLIPR calcium mobilization. The method in brief:
as §1
On the technique in general: Calcium flux is commonly read through the fluorescence of an indicator in the cells.

`CC(=O)N1Cc2ccccc2C2(CCN(CC3CC4CCC3CC4)CC2)C1` (stereo not drawn) [compound 94]: at M4 muscarinic receptor, the Emax lay within 25 to 100% and the “M4 Activity” value is listed as “+++ (activity was measured to be less than 1.0 μM)”. For the same molecule, on M1 muscarinic receptor, the maximum response (Emax) was in the range of 25 to 100% and the “M1 Activity” value is “++ (activity was measured to be from 1.0 μM to 5.0 μM)”.
As for `O=C(OC1CCC1)N1Cc2ccccc2C2(CCN(C3CC4CCC(C3)N4C(=O)O[C@H]3CCOC3)CC2)C1` (stereo partly drawn) [compound 95], on M4 muscarinic receptor, the maximal effect (Emax) is 25 to 100% and the “M4 Activity” value is “+++ (activity was measured to be less than 1.0 μM)”. Besides, on M1 muscarinic receptor, the maximum response (Emax) is 25 to 100% and the “M1 Activity” value is listed as “+++ (activity was measured to be less than 1.0 μM)”.
As to `COCCOC(=O)N1Cc2ccccc2C2(CCN(C3CC4CCC(C3)N4C(=O)OCCOC)CC2)C1` (stereo not drawn) [compound 96], at M4 muscarinic receptor, the maximal response (Emax) is 25 to 100% and the “M4 Activity” value is “+++ (activity was measured to be less than 1.0 μM)”. At M1 muscarinic receptor, the Emax fell in the range of 25 to 100% and the “M1 Activity” value is given as “+++ (activity was measured to be less than 1.0 μM)”.
Regarding `CC(=O)N1Cc2ccccc2C2(CCN(Cc3nccs3)CC2)C1` [compound 98], on M4 muscarinic receptor, the Emax is less than 25% and the “M4 Activity” value is listed as “+ (activity was measured to be greater than 5.0 μM)”. At M1 muscarinic receptor, the maximal response (Emax) was less than 25% and the “M1 Activity” value was “+ (activity was measured to be greater than 5.0 μM)”.
For `CCCOC(=O)N1Cc2ccccc2C2(CCN(C3CC4CCC(C3)N4C(=O)OCC)CC2)C1` (stereo not drawn) [compound 99], on M4 muscarinic receptor, the Emax fell in the range of 25 to 100% and the “M4 Activity” value is on record as “+++ (activity was measured to be less than 1.0 μM)”. On M1 muscarinic receptor, the Emax was 25 to 100% and the “M1 Activity” value was “+++ (activity was measured to be less than 1.0 μM)”.
Regarding `CCCOc1ccc(CN2CCC3(CC2)CN(C(C)=O)Cc2ccccc23)cc1` [compound 100], at M4 muscarinic receptor, the Emax was less than 25% and the “M4 Activity” value is “+ (activity was measured to be greater than 5.0 μM)”. Also, at M1 muscarinic receptor, the Emax was less than 25% and the “M1 Activity” value is listed as “+ (activity was measured to be greater than 5.0 μM)”.
Take `CC(=O)N1Cc2ccccc2C2(CCN(Cc3cc(C)c(C)o3)CC2)C1` [compound 101]: at M4 muscarinic receptor, the Emax is less than 25% and the “M4 Activity” value is reported as “+ (activity was measured to be greater than 5.0 μM)”. Besides, at M1 muscarinic receptor, the maximal response (Emax) is less than 25% and the “M1 Activity” value is reported as “+ (activity was measured to be greater than 5.0 μM)”.
With `O=C(C1CC1)N1Cc2ccccc2C2(CCN(C3CC4CCC(C3)N4C(=O)OC3CCC3)CC2)C1` (stereo not drawn) [compound 102], on M4 muscarinic receptor, the Emax was 25 to 100% and the “M4 Activity” value is “+++ (activity was measured to be less than 1.0 μM)”. Besides, at M1 muscarinic receptor, the Emax is 25 to 100% and the “M1 Activity” value is reported as “+++ (activity was measured to be less than 1.0 μM)”.
Consider `CCOC(=O)N1CCC(C)(CN2CCC3(CC2)CN(C(C)=O)Cc2ccccc23)CC1` [compound 103, ethyl 4-((2-acetyl-2,3-dihydro-1H-spiro[isoquinoline-4,4′-piperidine]-1′-yl)methyl)-4-methylpiperidine-1-carboxylate hydrochloride], for which, at M4 muscarinic receptor, the maximal effect (Emax) was in the range of 25 to 100% and the “M4 Activity” value is recorded as “+++ (activity was measured to be less than 1.0 μM)”. In addition, at M1 muscarinic receptor, the Emax is 25 to 100% and the “M1 Activity” value is recorded as “+++ (activity was measured to be less than 1.0 μM)”.
`CCOC(=O)N1CCC(N2CCC3(CC2)CN(C(=O)NC(C)C)Cc2ccccc23)CC1` [compound 104]: at M4 muscarinic receptor, the Emax was 25 to 100% and the “M4 Activity” value is on record as “+++ (activity was measured to be less than 1.0 μM)”. In addition, on M1 muscarinic receptor, the Emax lay in the range of 25 to 100% and the “M1 Activity” value is listed as “+++ (activity was measured to be less than 1.0 μM)”.
With `COC(=O)c1cccc(CN2CCC3(CC2)CN(C(C)=O)Cc2ccccc23)c1` [compound 105], at M4 muscarinic receptor, the Emax was less than 25% and the “M4 Activity” value is “+ (activity was measured to be greater than 5.0 μM)”. Also, on M1 muscarinic receptor, the Emax was less than 25% and the “M1 Activity” value was “+ (activity was measured to be greater than 5.0 μM)”.
As for `CCCCNC(=O)N1Cc2ccccc2C2(CCN(C3CCN(C(=O)OCC)CC3)CC2)C1` [compound 106], on M4 muscarinic receptor, the Emax fell in the range of 25 to 100% and the “M4 Activity” value is recorded as “+++ (activity was measured to be less than 1.0 μM)”. Further, at M1 muscarinic receptor, the maximum response (Emax) fell in the range of 25 to 100% and the “M1 Activity” value is recorded as “+++ (activity was measured to be less than 1.0 μM)”.
For the molecule `COc1ccc(CN2CCC3(CC2)CN(C(C)=O)Cc2ccccc23)cc1F` [compound 107], on M4 muscarinic receptor, the Emax is less than 25% and the “M4 Activity” value was “+ (activity was measured to be greater than 5.0 μM)”. Moreover, on M1 muscarinic receptor, the Emax is less than 25% and the “M1 Activity” value is “+ (activity was measured to be greater than 5.0 μM)”.
On to `CCOC(=O)N1CCC(N2CCC3(CC2)CN(C(=O)N2CCCC2)Cc2ccccc23)CC1` [compound 110], for which, at M4 muscarinic receptor, the maximum response (Emax) was 25 to 100% and the “M4 Activity” value is reported as “+++ (activity was measured to be less than 1.0 μM)”. On M1 muscarinic receptor, the maximal response (Emax) lay within 25 to 100% and the “M1 Activity” value was “+++ (activity was measured to be less than 1.0 μM)”.
In the case of `CCOC(=O)N1C2CCC(N3CCC4(CC3)CN(C(=O)OC3CCC3)Cc3ccccc34)CC1CC2` (stereo not drawn) [compound 112], at M4 muscarinic receptor, the Emax was 25 to 100% and the “M4 Activity” value is on record as “+++ (activity was measured to be less than 1.0 μM)”. Besides, at M1 muscarinic receptor, the Emax lay in the range of 25 to 100% and the “M1 Activity” value is “+++ (activity was measured to be less than 1.0 μM)”.
`CC(=O)N1Cc2ccccc2C2(CCN(Cc3ccc(F)cc3)CC2)C1` [compound 115]: at M4 muscarinic receptor, the maximum response (Emax) was less than 25% and the “M4 Activity” value is reported as “+ (activity was measured to be greater than 5.0 μM)”. Further, at M1 muscarinic receptor, the Emax is less than 25% and the “M1 Activity” value is given as “+ (activity was measured to be greater than 5.0 μM)”.
For the molecule `CC(=O)N1Cc2ccccc2C2(CCN(Cc3ccc4c(c3)CCO4)CC2)C1` [compound 116], on M4 muscarinic receptor, the Emax was less than 25% and the “M4 Activity” value is on record as “+ (activity was measured to be greater than 5.0 μM)”. For the same molecule, at M1 muscarinic receptor, the maximal response (Emax) was less than 25% and the “M1 Activity” value was “+ (activity was measured to be greater than 5.0 μM)”.
Turning to `COC(=O)c1ccccc1CN1CCC2(CC1)CN(C(C)=O)Cc1ccccc12` [compound 118], on M4 muscarinic receptor, the Emax is less than 25% and the “M4 Activity” value is given as “+ (activity was measured to be greater than 5.0 μM)”. At M1 muscarinic receptor, the Emax was less than 25% and the “M1 Activity” value is “+ (activity was measured to be greater than 5.0 μM)”.
For the molecule `CCCS(=O)(=O)N1Cc2ccccc2C2(CCN(C3CC4CCC(C3)N4C(=O)OC3CCC3)CC2)C1` (stereo not drawn) [compound 119], at M4 muscarinic receptor, the Emax is 25 to 100% and the “M4 Activity” value is “+++ (activity was measured to be less than 1.0 μM)”. In addition, on M1 muscarinic receptor, the Emax was in the range of 25 to 100% and the “M1 Activity” value is “+++ (activity was measured to be less than 1.0 μM)”.
In the case of `CCOC(=O)N1CCC(N2CCC3(CC2)CN(C(=O)OCC)Cc2ccccc23)CC1` [compound 120], on M4 muscarinic receptor, the maximal response (Emax) is 25 to 100% and the “M4 Activity” value is “+++ (activity was measured to be less than 1.0 μM)”. On M1 muscarinic receptor, the Emax was 25 to 100% and the “M1 Activity” value was “+++ (activity was measured to be less than 1.0 μM)”.
With `COc1cccc(CN2CCC3(CC2)CN(C(C)=O)Cc2ccccc23)c1` [compound 121], at M4 muscarinic receptor, the maximum response (Emax) is less than 25% and the “M4 Activity” value is listed as “+ (activity was measured to be greater than 5.0 μM)”. On M1 muscarinic receptor, the Emax is less than 25% and the “M1 Activity” value is recorded as “+ (activity was measured to be greater than 5.0 μM)”.

Broadly, the Emax is the greatest response seen or fitted, relative to the assay's reference.
